Our source for the TGI and GI50 values is PubChem BioAssay (NCI).

Several values for one entry are separate records, joined by “and”; a condition that tells them apart may be missing. Equal entries are not always repeated.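 All cell lines were grown in 96-well plates and treated with compound for 48 hours. Abbreviation: GI50, concentration required for 50% inhibition of growth. TGI is the concentration that stops growth completely.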 Bounds are passed on as bounds.

Common to all, as to test: NCI anticancer screen, dose series, 48 h
The subject of assay [1] is SN12C renal.
For assay [2], the system named is HCT-15 colon.
In assay [3] the test system is SR leukemia.
The test system of assay [4] is ACHN renal.
Assay [5] relates to SK-MEL-28 melanoma.
Assay [6] deals with OVCAR-5 ovarian.
In assay [7] the test system is BT-549 breast.
In assay [8] the test system is NCI-H226 lung.
Assay [9] has as its system NCI-H522 lung.
Assay [10] concerns HL-60(TB) leukemia.

With `Cc1nc(C(N)=S)sc1C(=O)C/C(=N/N)C(=O)Nc1cccc(Cl)c1C`, the TGI in assay [1], in assay [2], in assay [3], in [4], in assay [5] and in assay [6] was > 100 µM in each case. Besides, the TGI in assay [7], in assay [8], in assay [9] and in assay [10] was > 100 µM throughout.

For the molecule `CCOc1c(Cl)cc(CNC(C)C(O)c2ccccc2)cc1OC` (stereo unspecified), the GI50 in assay [1] was 38.7 µM; in assay [2], 21.9 µM; in assay [3] it was 17.1 µM; in assay [4], 23.7 µM; in [5], 15.3 µM; in [6], 24.3 µM. Besides, the GI50 in assay [7] was 41.1 µM; in assay [8] it was 33.5 µM; in [9] it was 20.7 µM; in [10], 21.1 µM. Besides, the TGI was > 100 µM in assay [1]; 67.4 µM in assay [2]; 52.5 µM in assay [3]; > 100 µM in assay [4]; 30.8 µM in assay [5]; 96.4 µM in assay [6]. Moreover, the TGI in assay [7] is > 100 µM; in assay [8], > 100 µM; in [9] it was 43.3 µM; in assay [10], 46.1 µM.

Regarding `c1nnc(NCNc2nncs2)s1`, the TGI in assay [1], in assay [2], in assay [3], in assay [4], in [5] and in assay [6] was > 100 µM throughout. Besides, the TGI in assay [7], in [8], in assay [9] and in assay [10] was > 100 µM throughout.

Consider `c1cc(CNC2C3CCC(C3)C2c2c[nH]c3ccccc23)cc(CNC2C3CCC(C3)C2c2c[nH]c3ccccc23)c1` (stereo unspecified), for which the GI50 in assay [1] was 14.5 µM; in assay [2], 0.325 µM and 0.301 µM; in assay [5], 1.01 µM and 0.343 µM; in assay [10] it was 1.6 µM. For the same molecule, the TGI in assay [1] is 31.5 µM; in assay [2], 1.01 µM and 1.12 µM; in [3], 0.773 µM; in [4] it was 2.04 µM; in [5], 2.3 µM and 1.51 µM; in assay [6] it was 3.39 µM and 3.4 µM. The TGI in [7] came out at 3.24 µM; in assay [9], 2.76 µM; in assay [10], 4.21 µM.

For `COc1cc2nc(-c3ccc(C(F)(F)F)cc3)cc(OCCCN3CCCCC3)c2cc1OC`, the GI50 was 0.668 µM in [1]; 0.399 µM in [2]; 0.193 µM in assay [3]; 1.2 µM in assay [4]; 1.26 µM in assay [5]; 0.71 µM in [6]. In addition, the GI50 in [7] was 1.48 µM; in assay [8] it was 0.37 µM; in assay [9] it was 2.44 µM; in assay [10], 2.91 µM. Moreover, the TGI stood at 15.8 µM in assay [1]; 10.1 µM in [2]; 3.62 µM in assay [3]; 14.4 µM in assay [4]; 2.95 µM in assay [5]; 16.5 µM in [6]. For the same molecule, the TGI in assay [7] is 11.7 µM; in assay [8] it was 3.51 µM; in assay [9], 21.7 µM; in [10] it was 18.3 µM.

With `NC(=O)c1ccc(C2C3=C(CCCC3=O)OC3=C2C(=O)c2ccccc2C3=O)cc1` (stereo unspecified), the GI50 is 0.32 µM in assay [1]; 1.4 µM in assay [2]; 0.771 µM in assay [3]; 1.14 µM in [4]; 1.33 µM in assay [5]; 1.91 µM in assay [6]. For the same molecule, the GI50 was 0.642 µM in [7], 1.89 µM in assay [8], 0.307 µM in assay [9] and 0.239 µM in assay [10]. Also, the TGI in assay [1] came to 1.17 µM; in assay [2] it was 3.37 µM; in [3] it was 5.73 µM; in [4] it was 2.41 µM; in assay [5] it was 2.87 µM; in [6] it was 3.92 µM. For the same molecule, the TGI came to 2.03 µM in assay [7], 3.96 µM in [8], 0.757 µM in assay [9] and 0.538 µM in assay [10].

With `Cc1cc(=O)oc2cc(O)c(CN(C)CC(=O)O)cc12`, the TGI in assay [1], in [2], in [3], in assay [4], in [5] and in [6] was > 100 µM in each case. The TGI in assay [7], in [8], in [9] and in assay [10] was > 100 µM in each case.

In the case of `Cc1cc(-c2nnc3n2CCCCC3)c(C)n1-c1ccc(Cl)c(Cl)c1`, the GI50 is 14.7 µM in [1]; 11.7 µM in assay [2]; 11 µM in assay [3]; 12 µM in assay [4]; 10.7 µM in [5]; 39 µM in assay [6]. Moreover, the results for the GI50 in assay [7], in [9] and in [10] were 7.1 µM, 12.6 µM and 20.6 µM, respectively. Moreover, the TGI in assay [1] was 40.1 µM; in [2], > 100 µM; in assay [3], 45.3 µM; in assay [4], > 100 µM; in [5], 23.2 µM; in assay [6] it was > 100 µM. For the same molecule, the TGI in [7] stood at 20.3 µM; in [9] it was 28.3 µM; in [10], 61.2 µM.

On to `OCC1OC(n2cnc3c(/C=C(/O)c4ccccc4)ncnc32)C(O)C1O` (stereo unspecified), for which the TGI in [1], in [2], in [3], in assay [4], in [5] and in assay [6] was > 100 µM in each case. The TGI is > 100 µM in assay [7], > 92.7 µM in [8], 43.1 µM in [9] and 24 µM in [10].
